This passage reports log10 reduction factor results from patent publication US20240002434A1, “METHODS OF INACTIVATING VIRAL CONTAMINANTS” (ICHNOS SCIENCES SA, priority 2017, published 2024).

SMILES strings stand for the structures.

The subject of this assay is MLV. Briefly: VRV study on Arginine treatment of PA eluate. The assay is classed as cell-based, Murine Leukemia Virus. The protocol:
Based on the stability and activity studies reported in Example 1, the most promising viral inactivation methods were further tested for their ability to inactivate viruses. The effectiveness of the viral inactivation was evaluated by doing a spiking study at Bioreliance. Test samples were taken before and after each treatment and analyzed for viral titre. First, VRV study on Arginine treatment was carried out.
Only one virus, MLV, which is a typical model virus used for biological products derived from CHO cell lines such as monoclonal antibody, was used for this study. A total of 7 runs were performed. PA eluate from development runs was used as starting material. Different stock buffers of Arginine at the different pH (pH 4.0, pH 4.75, pH 4.79 and pH 5.5) were used to reach the target pH and concentration. The samples were neutralized using 250 mM Histidine pH 12.0 buffer around pH 6.0 to stop the reaction.
Log reduction values was calculated with respect to the neutralized load sample, a 5 plate large volume plating as well as a standard titration was performed on the t=60 min sample. The neutralized load hold sample was held at 16.0° C. to 20.0° C. for 60 minutes (runs 2, 4 and 6) or 120 minutes (runs 1, 3, 5 and 7).

In the case of `N=C(N)NCCC[C@H](N)C(=O)O` [Arginine], the log10 reduction factor runs as follows: (Run 2, Arginine concentration (mM) 0.4, pH 4, 60 min) 4.16 +/− 0.32 log10; (Run 3, Arginine concentration (mM) 0.8, pH 4, 120 min) 4.10 +/− 0.35 log10; (Run 4, Arginine concentration (mM) 0.8, pH 4.75, 60 min) 2.82 +/− 0.4 log10; (Run 5, Arginine concentration (mM) 0.38, pH 4.79, 120 min) “no reduction”; (Run 6, Arginine concentration (mM) 0, pH 5.5, 60, 120 min) 0.35 +/− 0.4 log10; (Run 7, Arginine concentration (mM) 0.8, pH 5.5, 120 min) “no reduction”.
